Source: patent publication US10174024B2, “5H-pyrido[3,2-B]indole compounds as anticancer agents” (BRISTOL-MYERS SQUIBB COMPANY, priority 2015, dated 2019)

The compounds below were run against BRD4 (Homo sapiens, UniProt O60885) (assay: Time Resolved Fluorescence Resonance Energy Transfer (TR-FRET) binding assay, FRET BRD4). Conditions: one of the FRET assays described (BRD4 bromodomain construct not specified); read-out: FRET BRD4 IC50.

Row | SMILES | IC50 [nM]
1 | [2H]C([2H])([2H])c1nnn(C)c1-c1cnc2c3ccc(N4CCOC4=O)c(F)c3n([C@H](c3ccccc3)C3CCOCC3)c2c1 [Example 60, 3-{6-Fluoro-3-[4-(^2H3)methyl-1-methyl-1H-1,2,3-triazol-5-yl]-5-[(S)-oxan-4-yl(phenyl)methyl]-5H-pyrido[3,2-b]indol-7-yl}-1,3-oxazolidin-2-one] | < 1
2 | [2H]C([2H])([2H])c1nnn(C)c1-c1ccc2c3ncc(-c4c(C([2H])([2H])[2H])nnn4C)cc3n(C(c3ncccc3F)C3CCOCC3)c2c1 (centres unmarked) [Example 28, 2-({3,7-Bis[4-(^2H3)methyl-1-methyl-1H-1,2,3-triazol-5-yl]-5H-pyrido[3,2-b]indol-5-yl}(oxan-4-yl)methyl)-3-fluoropyridine] | < 5
3 | [2H]C([2H])([2H])c1nnn(C)c1-c1cnc2c3c(N4CCS(=O)(=O)CC4)ccc(S(C)(=O)=O)c3n([C@H](c3ccccc3)C3CCOCC3)c2c1 [Example 24, 4-{6-Methanesulfonyl-3-[4-(^2H3)methyl-1-methyl-1H-1,2,3-triazol-5-yl]-5-[(S)-oxan-4-yl(phenyl)methyl]-5H-pyrido[3,2-b]indol-9-yl}-1λ^6-thiomorpholine-1,1-dione] | < 5
4 | Cc1nnn(C)c1-c1cnc2c3ccc(-c4ccon4)cc3n([C@H](c3ccccc3)C3CCOCC3)c2c1 [Example 2, 1,4-Dimethyl-5-{5-[(S)-oxan-4-yl(phenyl)methyl]-7-(1,2-oxazol-3-yl)-5H-pyrido[3,2-b]indol-3-yl}-1H-1,2,3-triazole] | < 5
5 | Cc1nnn(C)c1-c1cnc2c3ccc(C4(C)CNC(=O)O4)cc3n([C@H](c3ccccc3)C3CCOCC3)c2c1 (single isomer, unassigned) [Example 9] | < 5
6 | [2H]C([2H])([2H])c1nnn(C)c1-c1cnc2c3ccc(C4(O)CCNCC4)c(F)c3n([C@H](c3ccccc3)C3CCOCC3)c2c1 [Example 53, 4-{6-Fluoro-3-[4-(^2H3)methyl-1-methyl-1H-1,2,3-triazol-5-yl]-5-[(S)-oxan-4-yl(phenyl)methyl]-5H-pyrido[3,2-b]indol-7-yl}piperidin-4-ol] | < 1
7 | CC(=O)OCC(=O)N1CCN(c2ccc3c(c2)c2ncc(-c4c(C)nnn4C)cc2n3[C@H](c2ccccc2)C2CCOCC2)CC1 [Example 14, 2-{4-[3-(Dimethyl-1H-1,2,3-triazol-5-yl)-5-[(S)-oxan-4-yl(phenyl)methyl]-5H-pyrido[3,2-b]indol-8-yl]piperazin-1-yl}-2-oxoethyl acetate] | < 5
8 | [2H]C([2H])([2H])c1nnn(C)c1-c1cnc2c3c(N4CCCS4(=O)=O)ccc(S(C)(=O)=O)c3n([C@H](c3ccccc3F)C3CCOCC3)c2c1 [Example 34, 2-{5-[(S)-(2-Fluorophenyl)(oxan-4-yl)methyl]-6-methanesulfonyl-3-[4-(^2H3)methyl-1-methyl-1H-1,2,3-triazol-5-yl]-5H-pyrido[3,2-b]indol-9-yl}-1λ^6,2-thiazolidine-1,1-dione] | < 1
9 | Cc1nnn(C)c1-c1cnc2c3ccc(-c4cnn(C(C)C)c4)cc3n([C@H](c3ccccc3)C3CCOCC3)c2c1 [Example 16, 1,4-Dimethyl-5-{5-[(S)-oxan-4-yl(phenyl)methyl]-7-[1-(propan-2-yl)-1H-pyrazol-4-yl]-5H-pyrido[3,2-b]indol-3-yl}-1H-1,2,3-triazole] | < 5
10 | Cc1nnn(C)c1-c1cnc2c3ccc(N4CCC(C(F)(F)F)CC4)cc3n([C@H](c3ccccc3)C3CCOCC3)c2c1 [Example 72, 1-[3-(Dimethyl-1H-1,2,3-triazol-5-yl)-5-[(S)-oxan-4-yl(phenyl)methyl]-5H-pyrido[3,2-b]indol-7-yl]-4-(trifluoromethyl)piperidine] | < 1
11 | [2H]C([2H])([2H])c1nnn(C)c1-c1ccc2c3ncc(-c4c(C)nnn4C)cc3n([C@H](c3ccccc3)C3CCOCC3)c2c1 [Example 18, 5-[3-(Dimethyl-1H-1,2,3-triazol-5-yl)-5-[(S)-oxan-4-yl(phenyl)methyl]-5H-pyrido[3,2-b]indol-7-yl]-4-(^2H3)methyl-1-methyl-1H-1,2,3-triazole] | < 1
12 | Cc1nnn(C)c1-c1cnc2c3c(N4CCN(C5COC5)CC4)ccc(S(C)(=O)=O)c3n([C@H](c3ccccc3)C3CCOCC3)c2c1 [Example 23, 1-[3-(Dimethyl-1H-1,2,3-triazol-5-yl)-6-methanesulfonyl-5-[(S)-oxan-4-yl(phenyl)methyl]-5H-pyrido[3,2-b]indol-9-yl]-4-(oxetan-3-yl)piperazine] | < 5
13 | [2H]C([2H])([2H])c1nnn(C)c1-c1cnc2c3c(N4CCCS4(=O)=O)ccc(S(C)(=O)=O)c3n([C@H](c3ccccc3)C3CCOCC3)c2c1 [Example 26, 2-{6-Methanesulfonyl-3-[4-(^2H3)methyl-1-methyl-1H-1,2,3-triazol-5-yl]-5-[(S)-oxan-4-yl(phenyl)methyl]-5H-pyrido[3,2-b]indol-9-yl}-1λ^6,2-thiazolidine-1,1-dione] | < 1500
14 | Cc1nnn(C)c1-c1cnc2c3ccc(N4CCN(C5CCN(C)CC5)CC4)cc3n([C@H](c3ccccc3)C3CCOCC3)c2c1 [Example 48, 1-[3-(Dimethyl-1H-1,2,3-triazol-5-yl)-5-[(S)-oxan-4-yl(phenyl)methyl]-5H-pyrido[3,2-b]indol-7-yl]-4-(1-methylpiperidin-4-yl)piperazine] | < 1
15 | [2H]C([2H])([2H])c1nnn(C)c1-c1cnc2c3ccc(N4CCN(S(C)(=O)=O)CC4)cc3n([C@H](c3ccccc3)C3CCOCC3)c2c1 [Example 46, 1-Methanesulfonyl-4-{3-[4-(^2H3)methyl-1-methyl-1H-1,2,3-triazol-5-yl]-5-[(S)-oxan-4-yl(phenyl)methyl]-5H-pyrido[3,2-b]indol-7-yl}piperazine] | < 1
16 | [2H]C([2H])([2H])c1nnn(C)c1-c1cnc2c3ccc(N4CCC(S(C)(=O)=O)CC4)cc3n(C(c3ncccc3F)C3CCOCC3)c2c1 (centres unmarked) [Example 69, 3-Fluoro-2-{[7-(4-methanesulfonylpiperidin-1-yl)-3-[4-(^2H3)methyl-1-methyl-1H-1,2,3-triazol-5-yl]-5H-pyrido[3,2-b]indol-5-yl](oxan-4-yl)methyl}pyridine] | < 1
17 | [2H]C([2H])([2H])c1nnn(C)c1-c1ccc2c3ncc(-c4c(C([2H])([2H])[2H])nnn4C)cc3n([C@H](c3ccccc3)C3CCOCC3)c2c1 [Example 31, 4-(^2H3)Methyl-1-methyl-5-{7-[4-(^2H3)methyl-1-methyl-1H-1,2,3-triazol-5-yl]-5-[(S)-oxan-4-yl(phenyl)methyl]-5H-pyrido[3,2-b]indol-3-yl}-1H-1,2,3-triazole] | < 1
18 | [2H]C([2H])([2H])c1nnn(C)c1-c1cnc2c3ccc(C4(C)COC(=O)N4)c(F)c3n([C@H](c3ccccc3)C3CCOCC3)c2c1 (stereo partly drawn) [Example 56, 4-{6-Fluoro-3-[4-(^2H3)methyl-1-methyl-1H-1,2,3-triazol-5-yl]-5-[(S)-oxan-4-yl(phenyl)methyl]-5H-pyrido[3,2-b]indol-7-yl}-4-methyl-1,3-oxazolidin-2-one] | < 1
19 | Cc1nnn(C)c1-c1cnc2c3ccc(N4CCCOC4=O)cc3n([C@H](c3ccccc3)C3CCOCC3)c2c1 [Example 12, 3-[3-(Dimethyl-1H-1,2,3-triazol-5-yl)-5-[(S)-oxan-4-yl(phenyl)methyl]-5H-pyrido[3,2-b]indol-7-yl]-1,3-oxazinan-2-one] | < 5
20 | [2H]C([2H])([2H])c1nnn(C)c1-c1cnc2c3ccc(N4CCC(F)(F)CC4)cc3n(C(c3ncccc3F)C3CCOCC3)c2c1 (centres unmarked) [Example 65, 2-{[7-(4,4-Difluoropiperidin-1-yl)-3-[4-(^2H3)methyl-1-methyl-1H-1,2,3-triazol-5-yl]-5H-pyrido[3,2-b]indol-5-yl](oxan-4-yl)methyl}-3-fluoropyridine] | < 1
21 | [2H]C([2H])([2H])c1nnn(C)c1-c1cnc2c3cc(N4CCN(S(C)(=O)=O)CC4)ccc3n([C@H](c3ccc(F)cc3)C3CCOCC3)c2c1 [Example 40, 1-{5-[(S)-(4-Fluorophenyl)(oxan-4-yl)methyl]-3-[4-(^2H3)methyl-1-methyl-1H-1,2,3-triazol-5-yl]-5H-pyrido[3,2-b]indol-8-yl}-4-methanesulfonylpiperazine] | < 1
22 | Cc1nnn(C)c1-c1cnc2c3c(N4CCCS4(=O)=O)ccc(S(C)(=O)=O)c3n([C@H](c3ccccc3)C3CCOCC3)c2c1 [Example 19, 2-[3-(Dimethyl-1H-1,2,3-triazol-5-yl)-6-methanesulfonyl-5-[(S)-oxan-4-yl(phenyl)methyl]-5H-pyrido[3,2-b]indol-9-yl]-1λ^6,2-thiazolidine-1,1-dione] | < 1
23 | CC(=O)OCC(=O)N1CCC(c2ccc3c(c2)c2ncc(-c4c(C)nnn4C)cc2n3[C@H](c2ccccc2)C2CCOCC2)CC1 [Example 8, 2-{4-[3-(Dimethyl-1H-1,2,3-triazol-5-yl)-5-[(S)-oxan-4-yl(phenyl)methyl]-5H-pyrido[3,2-b]indol-8-yl]piperidin-1-yl}-2-oxoethyl acetate] | < 5
24 | [2H]C([2H])([2H])c1nnn(C)c1-c1cnc2c3c(N4CCCS4(=O)=O)ccc(S(C)(=O)=O)c3n([C@H](c3ccc(F)cc3)C3CCOCC3)c2c1 [Example 33, 2-{5-[(S)-(4-Fluorophenyl)(oxan-4-yl)methyl]-6-methanesulfonyl-3-[4-(^2H3)methyl-1-methyl-1H-1,2,3-triazol-5-yl]-5H-pyrido[3,2-b]indol-9-yl}-1λ^6,2-thiazolidine-1,1-dione] | < 1
25 | Cc1nnn(C)c1-c1cnc2c3ccc(N4CCC(C(F)(F)F)CC4)cc3n(C(c3ccccc3)C3CCC(F)(F)CC3)c2c1 (single isomer, unassigned) [Example 78, 1-{5-[(4,4-Difluorocyclohexyl)(phenyl)methyl]-3-(dimethyl-1H-1,2,3-triazol-5-yl)-5H-pyrido[3,2-b]indol-7-yl}-4-(trifluoromethyl)piperidine] | < 5
26 | Cc1nnn(C)c1-c1cnc2c3c(N4CCCCS4(=O)=O)ccc(S(C)(=O)=O)c3n([C@H](c3ccccc3)C3CCOCC3)c2c1 [Example 20, 2-[3-(Dimethyl-1H-1,2,3-triazol-5-yl)-6-methanesulfonyl-5-[(S)-oxan-4-yl(phenyl)methyl]-5H-pyrido[3,2-b]indol-9-yl]-1λ^6,2-thiazinane-1,1-dione] | < 1
